{
  "source": "patent US10799540B2",
  "about": "“Faecalibacterium longum and application thereof” (BGI SHENZHEN, priority 2016, dated 2020)",
  "key": {"T2D model mice [1]": {"test_system": "T2D model mice", "test": "Body weight change of T2D model mice treated by gavage for 2 months", "format": "in vivo, C57bL/6 mice", "conditions": "intragastric treatment"}, "T2D model mice [2]": {"test_system": "T2D model mice", "test": "Glucose tolerance (OGTT) in T2D model mice", "format": "in vivo, C57bL/6 mice", "conditions": "before sacrifice"}, "T2D model mice [3]": {"test_system": "T2D model mice", "test": "Serum blood lipids in T2D model mice at end of experiment", "conditions": "after 2 months of treatment"}, "T2D model mice [4]": {"test_system": "T2D model mice", "test": "Fasting blood glucose (FBG) in T2D model mice", "format": "in vivo, C57bL/6 mice"}},
  "note": "Marks after values point to notes of the source that are not given here.",
  "data": [
    {"smiles": "CN(C)C(=N)N=C(N)N", "note": "[Metformin, metformin]", "values": [
      {"measurement": "body weight", "setting": "T2D model mice [1]; 1 week", "value": 21.54, "unit": "g"},
      {"measurement": "body weight", "setting": "T2D model mice [1]; 3 weeks", "value": 23.42, "unit": "g"},
      {"measurement": "body weight", "setting": "T2D model mice [1]; 5 weeks", "value": 25.23, "unit": "g"},
      {"measurement": "body weight", "setting": "T2D model mice [1]; 7 weeks", "value": 26.6, "unit": "g"},
      {"measurement": "body weight", "setting": "T2D model mice [1]; 9 weeks", "value": "27.49* g"},
      {"measurement": "blood glucose in glucose tolerance test (OGTT)", "setting": "T2D model mice [2]; 0 min after glucose gavage", "value": 9.2, "unit": "mmol/L"},
      {"measurement": "blood glucose in glucose tolerance test (OGTT)", "setting": "T2D model mice [2]; 30 min after glucose gavage", "value": 19.5, "unit": "mmol/L"},
      {"measurement": "blood glucose in glucose tolerance test (OGTT)", "setting": "T2D model mice [2]; 60 min after glucose gavage", "value": 16.1, "unit": "mmol/L"},
      {"measurement": "blood glucose in glucose tolerance test (OGTT)", "setting": "T2D model mice [2]; 90 min after glucose gavage", "value": "10.9* mmol/L"},
      {"measurement": "blood glucose in glucose tolerance test (OGTT)", "setting": "T2D model mice [2]; 120 min after glucose gavage", "value": "10.1* mmol/L"},
      {"measurement": "blood glucose in glucose tolerance test (OGTT)", "setting": "T2D model mice [2]; 120 min after glucose gavage, listed as metformin", "value": 9.8, "unit": "mmol/L"},
      {"measurement": "HDLC (high-density lipoprotein)", "setting": "T2D model mice [3]", "value": "3.023* mmol/L"},
      {"measurement": "LDLC (low density lipoprotein)", "setting": "T2D model mice [3]", "value": "1.533* mmol/L"},
      {"measurement": "TC (total cholesterol)", "setting": "T2D model mice [3]", "value": 5.923, "unit": "mmol/L"},
      {"measurement": "TG (triglyceride)", "setting": "T2D model mice [3]", "value": 1.565, "unit": "mmol/L"},
      {"measurement": "fasting blood glucose", "setting": "T2D model mice [4]; week five", "value": 14.6, "unit": "mmol/L"},
      {"measurement": "fasting blood glucose", "setting": "T2D model mice [4]; week nine", "value": "9.8** mmol/L"},
      {"measurement": "fasting blood glucose", "setting": "T2D model mice [4]; week one", "value": 16.7, "unit": "mmol/L"},
      {"measurement": "fasting blood glucose", "setting": "T2D model mice [4]; week seven", "value": "12.1* mmol/L"},
      {"measurement": "fasting blood glucose", "setting": "T2D model mice [4]; week three", "value": 15.8, "unit": "mmol/L"}
    ]}
  ]
}
